Experimental data taken from patent US11331371B2, “Labyrinthopeptins as anti-viral agents” (Helmholtz-Zentrum Für Infektionsforschung GMBH, priority 2015, dated 2022).
Read-outs that look alike come from different tables or passages of the source.

Assays:
[1] = test system: Dengue Virus (Type 2 New Guinea C); assay: Dose response assay, DENV infection of Huh-7.5 cells, DENV envelope protein immunostaining, high-content imaging; assay type: cell-based; settings: MOI 0.5, 48 h post-infection; for IC50: read-out: IC50 of the anti-viral activity, DENV
Protocol: Huh-7.5 cells (3×10^4 per well) were seeded in black 96-well optical-bottom plates [Nunc] in full growth medium one day prior to infection. After washing with PBS, 40 μl assay medium (5% FBS) was added to cells containing either Laby A1, Laby A2 (final conc. 50, 16.7, 5.56, 1.85, 0.62, 0.21, 0.069 μg/ml) or a combination of Laby A1 and Laby A2 (25, 8.3, 2.8, 0.93, 0.31, 0.10, 0.034 μg/ml each). Treatments were run in doublets. PBS served as a control. After 30 min of incubation, cells were infected with Dengue Virus (Type 2 New Guinea C) at an MOI of 0.5 to give a final volume of 60 μl/well. After 2 h incubation at room temperature cells were washed with PBS and 100 μl assay medium was added per well. Infected cells were incubated for another 48 h. Hereafter media were removed from the wells and cells were fixed with 4% PFA. Fixed cells were washed extensively with PBS and permeabilized with 0.25% TritonX-100 for 5 min. After blocking with 5% FB in PBS primary antibody was applied (Anti-Dengue Virus E glycoprotein antibody [DE1] (ab41349) [Abcam], 1:100 diluted in 5% FBS/PBS) for 2 h. After washing secondary antibody (Alexa Fluor® 488 Goat Anti-Mouse IgG (H+L) [Life Technologies], 1:1000 diluted in 5% FBS/PBS) was applied for 1 h. Finally, cells were stained with DAPI (500 ng/ml in PBS) for 5 min.
Fluorescent cells were analyzed by high-content imaging using the automated microscope ImageXpressMicro [Molecular Devices] and the MetaXpress-software. […] The number of total cells/site was determined by automatically counting DAPI-stained nuclei. The percentage of DENV-positive cells was calculated by automatically evaluating the number of Alexa Fluor 488-positive cells in relation to the total cell number. […] IC50-values were calculated by non-linear regression.
To determine a potential synergistic effect of Labyrinthopeptins A1 and A2 on DENV-infection a dose response assay was performed. […] The number of total cells as well as the percentage of Alexa Fluor 488-positive cells (=DENV positive cells) was determined by high-content fluorescence imaging.

[2] = Cell-based HTS system for cytotoxic concentration (CC50), FF-luc HEp-2 cells; settings: 72 h, concentrations up to 100 μM, read-out: half maximal cytotoxic concentration (CC50)
Protocol: Cells (e.g. HEp-2 cells), which stably express the reporter gene of a firefly luciferase (FF-luc), may be seeded in a 96-well plate in media, e.g. in Gibco® Advanced MEM. After 72 h of incubation at 37° C. in the presence of increasing concentrations of the labyrinthopeptin, labyrinthopeptin derivative or combination to be tested (e.g. up to 100 μM), the cells may be lysed and the extinction of the FF-luc (RLU) may be measured. Therefore, a plate luminometer (Berthold) may be used. The number of surviving cells is […] proportional to residual luciferase expression.
A cell-based screening system was used to determine the cytotoxic concentration (CC50) of labyrinthopeptin A1 and A2.
1×10^4 HEp-2 cells, which are stably expressing the reporter gene of a firefly luciferase (FF-luc), were seeded in a 96-well plate in 200 μl appropriate media. After 72 h of incubation at 37° C. in the presence of increasing concentrations of labyrinthopeptin A1 or A2 up to 100 μM, the cells have been lysed in 35 μl lysis buffer and the extinction of the FF-luc (RLU) was measured using a plate luminometer (Berthold). The number of surviving cells is […] proportional to residual luciferase expression.

wild-type RSV (hRSV) = settings: read-out: IC50 of the anti-viral activity, RSV; intracellular RSV-P staining, HEp 2 cells, MOI 1, 18 h post infection
[3] = test system: human respiratory syncytial virus (RSV); settings: read-out: IC50, inhibition of RSV induced cell death; FF-luc HEp-2 cells, MOI 3, 72 h, indirect assay
KSHV = settings: read-out: IC50 of the anti-viral activity, KSHV; HEK 293 cells, MOI 0.01, 48 h
TBEV (Toro isolate) = settings: read-out: IC50 of the anti-viral activity, TBEV; Vero-B4 cells, MOI 0.01, 3 days, estimated by visual inspection
[4] = test system: GFP-expressing CMV (HCMV) strain pHG-1 (HT8-GFP, AD169-based); settings: read-out: IC50 of the anti-viral activity, CMV, NHDF cells, MOI 0.5, GFP at day 4 post infection
[5] = test system: CHIKV glycoprotein-mediated cell entry (CHIKV gp-pseudotyped lentiviral particles); settings: CHIKV glycoprotein pseudotypes, 293T cells, 48 h
[6] = test system: VSV glycoprotein-mediated cell entry (VSV-G-pseudotyped lentiviral particles); settings: 48 h
ZIKV (Strain MR766-NIID) = settings: read-out: IC50 of the anti-viral activity, ZIKV; Huh-7.5 cells, MOI 0.5, 48 h, genome copy equivalents
HCV JcR2a = settings: Huh 7.5 Fluc cells, Renilla luciferase after 48 h
[7] = test system: peripheral blood mononuclear cells (PBMCs); settings: cited from earlier work
Huh 7.5 Fluc cells = assay: Cell viability (firefly luciferase) in the HCV assay
[8] = test system: GFP-expressing CMV strain HT8-GFP (AD169); assay: Mode of action assay, pretreatment of CMV particles or NHDF cells; assay type: cell-based, Human cytomegalovirus; settings: LabyA1 3 μM, LabyA2 7 μM, PAA 180 μM

SMILES	IC50 [1]	CC50 [2]	IC50 (wild-type RSV (hRSV))	IC50 [3]	IC50 (KSHV)	IC50 (TBEV (Toro isolate))	IC50 [4]	IC50 ([4]; listed as Labyrinthopeptin A1)	IC50 of the anti-viral activity, CHIKV [5]	IC50 ([5]; read-out: IC50 of the anti-viral activity, CHIKV)	IC50 [6]	IC50 of the anti-viral activity, VSV [6]	IC50 (ZIKV (Strain MR766-NIID))	IC50 (HCV JcR2a; read-out: IC50 of the anti-viral activity, HCV (virus entry), 4 h inoculation)	IC90 (HCV JcR2a; read-out: IC90, inhibition of HCV virus entry)	inflammatory response in PBMCs [7]	cytotoxicity at the tested concentrations in the HCV assay (Huh 7.5 Fluc cells)	IC50 of the anti-viral activity, DENV [1]	inhibition of viral gene expression (CMV), permanently treated, effective dose ([8]; treatment throughout the infection cycle)	inhibition of viral gene expression (CMV), virus pretreated ([8]; virus pretreated 1 h then diluted 16-fold)
C/C=C1\NC(=O)[C@H](Cc2ccccc2)NC(=O)[C@@H]2CCCN2C(=O)[C@H](C(C)C)NC(=O)[C@H](Cc2c[nH]c3ccccc23)NC(=O)[C@]23CSC[C@H](NC1=O)C(=O)N[C@H](C(=O)O)CSSC[C@H](NC(=O)[C@@H]1CSC[C@]4(C[C@H](N)C(=O)N[C@@H](CC(N)=O)C(=O)N[C@@H](C)C(=O)N4)C(=O)N[C@@H](C(C)C)C(=O)N[C@@H](Cc4c[nH]c5ccccc45)C(=O)N[C@@H](CCC(=O)O)C(=O)N1)C(=O)N[C@@H](C2)C(=O)N[C@@H]([C@@H](C)O)C(=O)NCC(=O)N3 [LabyA1, Labyrinthopeptin A1]	1780 nM	79700 nM	390 nM	3870 nM	2000 nM	24100 nM	1300 nM	~1300 nM	1.0 to 3.5 µg/mL	500 to 1700 nM	1100 to 3700 nM	2.3 to 7.7 µg/mL	2220 nM	1050 nM	9160 nM	does not cause an inflammatory response	No cytotoxicity was observed	–	–	–
C#CCCCC(=O)N[C@H]1C[C@]2(CSC[C@@H](C(=O)N[C@H]3CSSC[C@@H](C(=O)O)NC(=O)[C@@H]4CSC[C@]5(C[C@H](NC3=O)C(=O)N[C@@H]([C@@H](C)O)C(=O)NCC(=O)N5)C(=O)N[C@@H](CC(C)C)C(=O)N[C@@H](Cc3ccccc3)C(=O)N[C@@H](C)C(=O)N4)NC(=O)[C@H](CCC(=O)O)NC(=O)[C@H](Cc3c[nH]c4ccccc34)NC(=O)[C@H](CC(C)C)NC2=O)NC(=O)[C@H](Cc2c[nH]c3ccccc23)NC(=O)[C@H](CC(=O)O)NC1=O [LabyA2-hexyn]	7030 nM	–	–	–	–	–	–	–	–	–	–	–	–	–	–	–	–	14.2 µg/mL	–	–
O=C(O)CP(=O)(O)O [PAA, phosphonoacetic acid]	–	–	–	–	–	–	–	–	–	–	–	–	–	–	–	–	–	–	exerted inhibition only when permanently present in the culture medium	not when it was removed after pretreatment of the virus or cells
